Test results reported in patent publication US20180360799A1, “Nitrofuran Derivatives That Induce Apoptosis in Breast Cancer Cells by Activating Protein Expression” (Oklahoma Medical Research Foundation, priority 2015, published 2018).

Legend:
caspase-3 = test: Caspase-3 cleavage by Western blotting in HCC-1806 cells; assay type: cell-based, human; conditions: HCC-1806, 10 μM, at 8 h and 24 h
Procedure: (§1) FIG. 2A is an image showing apoptosis of HCC-1806 cells after treatment with a 5-nitrofuran-2-amide derivative compound 3d (above). Cells were treated with 3d (10 μM) for the indicated times, and cleavage of caspase-3 was determined by Western blotting. α-Tubulin was used as a loading control. The data shown are representative of 3 independent studies. FIGS. 2B and 2C are live-cell phase-contrast images (magnification 10×) showing treatment with DMSO and (10 μM) 5-nitrofuran-2-amide derivative compound 3d respectively for 24 h. To determine whether the reduction in TNBC cell viability by the 5-nitrofuran-2-amide derivatives was due to the induction of apoptosis, the inventor analyzed cleavage of caspase-3, a critical executioner of apoptosis, in HCC-1806 cells treated with compound 3d. […] To confirm this, HCC-1806 cells were cultured to near confluence and treated with 10 μM 3d or DMSO for 24 h and then imaged by live-cell phase-contrast microscopy.
HCC-1806 cells were seeded in 60-mm dishes at 8×10^5 cells/dish and treated for the indicated times. Cells were then washed with PBS and lysed with lysis buffer (Cell Signaling Technology, Danvers, Mass., US) containing EDTA and phosphatase inhibitors. Aliquots of 20 μg total protein were separated on 7% SDS-PAGE gels (Life Technologies, Carlsbad, Calif., US) and transferred to PVDF membranes. […]

HCC-1806 cells [1] = test: Cell viability, CellTiter-Glo, HCC-1806; assay type: cell-based; conditions: Homo sapiens, HCC1806, 72 h; Table 2; cancer cell viability, 3 d treatment; read-out: HCC-1806 IC50
Procedure: (§2) Given the known functions of CHOP in ER stress-induced apoptosis^16, 17 and in regulating cancer cell death,^6, 19, 20 the inventor investigated whether compound 1 affects the viability of TNBC cells. Three human TNBC cell lines, HCC-1806, HCC-1143, and HCC-38, were treated with doses of 1 ranging from 0.125 μM to 20 μM and their viability was assessed using the CellTiter-Glo assay, which measures intracellular ATP levels.
(§3) HCC-1806, HCC-1143, or HCC-38 cells were seeded at 3×10^3 cells/well in a 384-well plate and treated with compounds at the indicated concentrations. After 3 d treatment, the medium was aspirated and 20 μL/well of CellTiter-Glo reagent was added. Cell viability was measured with an EnVision multilabel plate reader. The IC50 value for cell viability of each compound was calculated with GraphPad Prism (La Jolla, Calif., US).

CHOP protein = CHOP protein by Western blotting in HCC-1806 cells; assay type: cell-based, human; conditions: 10 μM, significant increases between 4 h and 24 h
Procedure: FIG. 3B is an image showing CHOP […] expression levels after treatment with a 5-nitrofuran-2-amide derivative. Cells were treated with compound 3d (10 μM) for the indicated times, and CHOP protein levels were analyzed by Western blotting. α-Tubulin was used as a loading control. The data shown are representative of 3 independent studies.
HCC-1806 cells were seeded in 60-mm dishes at 8×10^5 cells/dish and treated for the indicated times. Cells were then washed with PBS and lysed with lysis buffer (Cell Signaling Technology, Danvers, Mass., US) containing EDTA and phosphatase inhibitors. Aliquots of 20 μg total protein were separated on 7% SDS-PAGE gels (Life Technologies, Carlsbad, Calif., US) and transferred to PVDF membranes. The membranes were probed with primary antibodies followed by the appropriate HRP-conjugated secondary antibodies (goat anti-rabbit IgG and goat anti-mouse IgG, 1:3000; Santa Cruz Biotechnology, Santa Cruz, Calif., US). Blots were then developed. The primary antibodies and dilutions used were: CHOP (1:1000 no. MA1-250; Thermo, IL, US), cleaved caspase 3 (1:1000 no. 9661; Cell Signaling Technology), ATF4 (1:1000 no. 10835-1-AP; ProteinTech Group, IL, US), p-eIF2α (Ser51) (1:1000 no. 9721; Cell Signaling Technology), and α-tubulin (1:2000 no. SC-8035; Santa Cruz Biotechnology).

HCC-38 cells = test: Cell viability, CellTiter-Glo, HCC-38; assay type: cell-based; conditions: Homo sapiens, HCC38, 72 h; Table 2; cancer cell viability, 3 d treatment; read-out: HCC-38 IC50
Procedure: as §2, §3

HCC-1806 cells [2] = test: Live-cell phase-contrast microscopy of HCC-1806 cells; assay type: cell-based, human; conditions: near confluent HCC-1806, 10 μM, 24 h
Procedure: as §1

HCC-1806 cells [3] = test: Viability of siRNA-transfected HCC-1806 cells, CellTiter-Glo; assay type: cell-based, human; conditions: 48 h
Procedure: FIG. 3H is a graph showing cell viability of HCC-1806 cells transfected with a control or CHOP siRNA after treatment with a 5-nitrofuran-2-amide derivative or DMSO. Control or CHOP siRNA (20 nM) was transfected into HCC-1806 cells, and 6 h later, cells were treated with compound 3d (5 μM) or DMSO for 48 h. Cell viability was measured using the CellTiter-Glo assay. The data shown are representative of 3 independent studies. *P<0.05 by Student's t-test compared with DMSO-treated cells.
To confirm that CHOP induction plays a role in compound 3d-mediated TNBC cell death, the inventor asked whether siRNA-mediated knockdown of CHOP mitigated compound 3d-induced cell death. For this, HCC-1806 cells were transfected with different concentrations of CHOP siRNA, and knockdown efficiency was assessed by RT-PCR.
HCC-1806 cells incubated with serum-free RPMI 1640 medium (Corning) were transfected with scrambled control or CHOP siRNA (E-004819-00; Dharmacon/Thermo Scientific, IL, US) using LipofectAMINE reagent (Invitrogen). After 6 h, the medium was replaced with RPMI 1640 medium supplemented with 10% FBS and compound 3d was added. After 48 h, the medium was aspirated and 60 μL/well of CellTiter-Glo reagent was added in 96-w format. Cell viability was measured with an EnVision multilabel plate reader.

IC50 (HCC-1806 cells [1]): 2800 nM
IC50 (HCC-38 cells): 2500 nM
Compound: CC1CCN(c2ccc(NC(=O)c3ccc([N+](=O)[O-])o3)cc2)CC1 [Compound 3d]
cleavage of caspase-3 (caspase-3): increased cleavage of caspase-3 protein levels
CHOP protein levels (CHOP protein): increased CHOP protein levels
cell death seen by phase-contrast imaging (HCC-1806 cells [2]): few cells were observed
viability of cells transfected with control siRNA (HCC-1806 cells [3]; HCC-1806, 3d 5 μM): marked reduction in the viability
cell death in cells transfected with CHOP siRNA (HCC-1806 cells [3]; HCC-1806, CHOP siRNA 20 nM, 3d 5 μM): significantly attenuated the effects of compound 3d
